Source: ChEMBL document CHEMBL3774320, “SAR exploration at the C-3 position of tetrahydro-β-carboline sstr3 antagonists” (Bioorg Med Chem Lett, 2016)

How the values were obtained:
Mus musculus [1] = assay: Dose normalized AUC in mouse at 2 mg/kg, po; assay type: ADME, organism-based; details: in vivo
Mus musculus [2] = assay: Decrease in glucose excursion in mouse at 10 mg/kg, po by Glucose tolerance test; assay type: functional; parameters: scale not given: the % may be the effect or the level left
[3] = biological target: T1, Somatostatin receptor type 3 (Homo sapiens, UniProt P32745)
T1 sequence (P32745 whole entry): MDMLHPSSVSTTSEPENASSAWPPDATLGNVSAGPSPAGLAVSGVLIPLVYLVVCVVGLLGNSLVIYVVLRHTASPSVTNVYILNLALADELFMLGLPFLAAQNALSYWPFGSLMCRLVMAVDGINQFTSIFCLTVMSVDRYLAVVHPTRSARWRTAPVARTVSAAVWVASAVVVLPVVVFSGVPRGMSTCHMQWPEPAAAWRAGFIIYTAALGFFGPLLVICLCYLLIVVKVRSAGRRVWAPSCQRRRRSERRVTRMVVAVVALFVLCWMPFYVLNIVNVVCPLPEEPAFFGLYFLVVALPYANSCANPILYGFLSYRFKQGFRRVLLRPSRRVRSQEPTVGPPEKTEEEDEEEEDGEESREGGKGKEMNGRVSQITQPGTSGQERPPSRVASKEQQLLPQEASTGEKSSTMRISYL
Description: Antagonist activity at human somatostatin receptor type 3 assessed as inhibition of cAMP levels

Mus musculus [4] = assay: Decrease in glucose excursion in mouse at 0.1 mg/kg, po by Glucose tolerance test; assay type: functional; parameters: scale not given: the % may be the effect or the level left
[5] = Clearance in mouse plasma at 1 mg/kg, iv; assay type: ADME, organism-based
[6] = Half life in mouse at 1 mg/kg, iv; assay type: ADME, organism-based; details: in vivo
[7] = Volume of distribution at steady state in mouse at 1 mg/kg, iv and at 2 mg/kg, po; assay type: ADME, organism-based; details: in vivo, read-out: Vdss
[8] = Oral bioavailability in mouse at 2 mg/kg; assay type: ADME, organism-based; details: in vivo
Mus musculus [9] = assay: Decrease in glucose excursion in mouse at 0.03 mg/kg, po by Glucose tolerance test; assay type: functional; parameters: scale not given: the % may be the effect or the level left
Mus musculus [10] = assay: Decrease in glucose excursion in mouse at 0.3 mg/kg, po by Glucose tolerance test; assay type: functional; parameters: scale not given: the % may be the effect or the level left
Mus musculus [11] = assay: Decrease in glucose excursion in mouse at 1 mg/kg, po by Glucose tolerance test; assay type: functional; parameters: scale not given: the % may be the effect or the level left
Mus musculus [12] = assay: Decrease in glucose excursion in mouse at 3 mg/kg, po by Glucose tolerance test; assay type: functional; parameters: scale not given: the % may be the effect or the level left
[13] = biological target: Somatostatin receptor type 1 (Homo sapiens, UniProt P30872); assay: Binding affinity to somatostatin receptor type 1 (unknown origin)
Chain of Somatostatin receptor type 1 (P30872 whole entry): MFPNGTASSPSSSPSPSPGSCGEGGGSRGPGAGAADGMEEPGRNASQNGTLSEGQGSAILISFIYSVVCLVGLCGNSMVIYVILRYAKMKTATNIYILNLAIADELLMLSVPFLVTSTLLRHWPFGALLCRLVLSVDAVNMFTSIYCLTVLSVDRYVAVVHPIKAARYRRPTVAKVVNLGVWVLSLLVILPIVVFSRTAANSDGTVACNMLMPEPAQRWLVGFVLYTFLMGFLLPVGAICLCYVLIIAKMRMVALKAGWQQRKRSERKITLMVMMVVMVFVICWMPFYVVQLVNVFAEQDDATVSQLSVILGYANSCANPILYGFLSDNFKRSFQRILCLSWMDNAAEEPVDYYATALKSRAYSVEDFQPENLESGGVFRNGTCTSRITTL

[14] = biological target: Somatostatin receptor type 2 (Homo sapiens, UniProt P30874); assay: Binding affinity to somatostatin receptor type 2 (unknown origin)
Chain of Somatostatin receptor type 2 (P30874 whole entry): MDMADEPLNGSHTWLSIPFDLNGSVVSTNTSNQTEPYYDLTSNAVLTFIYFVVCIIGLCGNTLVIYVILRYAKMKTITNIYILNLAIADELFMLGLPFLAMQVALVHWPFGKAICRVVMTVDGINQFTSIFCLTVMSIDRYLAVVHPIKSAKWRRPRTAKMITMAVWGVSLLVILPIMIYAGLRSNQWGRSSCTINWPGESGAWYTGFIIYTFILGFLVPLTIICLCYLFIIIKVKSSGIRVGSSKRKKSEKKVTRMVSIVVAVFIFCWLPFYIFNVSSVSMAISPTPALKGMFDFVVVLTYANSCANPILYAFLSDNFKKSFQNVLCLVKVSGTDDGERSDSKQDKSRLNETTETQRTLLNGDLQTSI

[15] = biological target: Somatostatin receptor type 4 (Homo sapiens, UniProt P31391); assay: Binding affinity to somatostatin receptor type 4 (unknown origin)
Chain of Somatostatin receptor type 4 (P31391 whole entry): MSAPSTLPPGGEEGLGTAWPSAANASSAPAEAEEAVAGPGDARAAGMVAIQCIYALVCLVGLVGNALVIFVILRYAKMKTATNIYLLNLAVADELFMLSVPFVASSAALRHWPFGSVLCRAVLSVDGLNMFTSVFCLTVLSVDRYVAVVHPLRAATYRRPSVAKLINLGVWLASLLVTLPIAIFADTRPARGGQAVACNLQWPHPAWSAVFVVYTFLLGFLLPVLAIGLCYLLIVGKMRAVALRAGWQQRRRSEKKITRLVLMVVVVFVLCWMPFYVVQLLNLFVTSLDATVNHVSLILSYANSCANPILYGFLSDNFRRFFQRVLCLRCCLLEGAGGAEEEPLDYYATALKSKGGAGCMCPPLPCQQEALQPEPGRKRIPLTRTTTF

[16] = biological target: Somatostatin receptor type 5 (Homo sapiens, UniProt P35346); assay: Binding affinity to somatostatin receptor type 5 (unknown origin)
Chain of Somatostatin receptor type 5 (P35346 whole entry): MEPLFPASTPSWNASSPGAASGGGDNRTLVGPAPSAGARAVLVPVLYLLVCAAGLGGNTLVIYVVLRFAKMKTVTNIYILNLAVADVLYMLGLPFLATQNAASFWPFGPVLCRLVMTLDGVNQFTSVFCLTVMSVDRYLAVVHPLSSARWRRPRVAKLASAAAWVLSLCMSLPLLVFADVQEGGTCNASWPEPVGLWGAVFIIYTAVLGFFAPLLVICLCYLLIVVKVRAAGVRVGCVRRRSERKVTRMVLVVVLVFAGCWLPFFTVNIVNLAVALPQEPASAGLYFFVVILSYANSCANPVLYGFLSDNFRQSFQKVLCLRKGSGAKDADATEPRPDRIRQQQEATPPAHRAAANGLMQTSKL

[17] = biological target: T1, Somatostatin receptor type 3; remark: listed apart in the source
Description: Binding affinity to human somatostatin receptor type 3

[18] = biological target: Voltage-gated inwardly rectifying potassium channel KCNH2 (Homo sapiens, UniProt Q12809); assay: Binding affinity to human ERG
Chain of Voltage-gated inwardly rectifying potassium channel KCNH2 (Q12809 whole entry): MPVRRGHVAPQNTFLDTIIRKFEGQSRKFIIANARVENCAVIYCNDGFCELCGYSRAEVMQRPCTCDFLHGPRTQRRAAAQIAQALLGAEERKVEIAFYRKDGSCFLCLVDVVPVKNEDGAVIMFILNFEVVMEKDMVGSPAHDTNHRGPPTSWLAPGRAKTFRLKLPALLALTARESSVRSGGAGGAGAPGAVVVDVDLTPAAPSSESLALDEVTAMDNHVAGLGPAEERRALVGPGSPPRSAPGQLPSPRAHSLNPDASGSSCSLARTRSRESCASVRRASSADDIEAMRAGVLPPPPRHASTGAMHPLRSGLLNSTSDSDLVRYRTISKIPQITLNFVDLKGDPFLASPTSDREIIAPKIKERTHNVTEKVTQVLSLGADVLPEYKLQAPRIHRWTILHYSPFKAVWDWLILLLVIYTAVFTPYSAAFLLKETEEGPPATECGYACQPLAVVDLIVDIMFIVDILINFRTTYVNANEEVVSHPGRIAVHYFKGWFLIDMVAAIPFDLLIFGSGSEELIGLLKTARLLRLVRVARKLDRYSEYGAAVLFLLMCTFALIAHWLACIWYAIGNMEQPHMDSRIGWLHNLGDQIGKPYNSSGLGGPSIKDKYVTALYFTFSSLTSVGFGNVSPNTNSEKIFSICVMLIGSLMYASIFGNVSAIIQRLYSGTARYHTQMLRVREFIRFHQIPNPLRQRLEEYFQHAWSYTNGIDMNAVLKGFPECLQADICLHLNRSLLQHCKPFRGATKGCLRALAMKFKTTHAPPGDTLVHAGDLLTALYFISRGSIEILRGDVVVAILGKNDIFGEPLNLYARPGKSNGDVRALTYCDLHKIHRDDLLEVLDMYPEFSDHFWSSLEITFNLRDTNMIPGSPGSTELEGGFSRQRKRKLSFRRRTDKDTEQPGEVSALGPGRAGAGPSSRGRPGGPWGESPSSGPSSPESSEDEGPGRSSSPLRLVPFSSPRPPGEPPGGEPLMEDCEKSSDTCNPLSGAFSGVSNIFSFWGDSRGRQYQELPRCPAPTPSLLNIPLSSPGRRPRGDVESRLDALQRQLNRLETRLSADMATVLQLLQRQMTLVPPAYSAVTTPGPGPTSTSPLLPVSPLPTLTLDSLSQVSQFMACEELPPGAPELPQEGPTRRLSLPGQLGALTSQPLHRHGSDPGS

Row | SMILES | EC50 [3] | IC50 [17] | further results
1 | c1ccc(-c2c[nH]c([C@H]3Cc4c([nH]c5ccccc45)[C@@H](C4CCOCC4)N3)n2)cc1 | 22 nM | – | AUC/dose (Mus musculus [1]): 1.25 µM·h/mg/kg; Activity (Mus musculus [2]): 75%
2 | Cc1nc([C@]2(c3cnn(C)c3)N[C@@H](c3nc(-c4ccc(F)cc4)c[nH]3)Cc3c2[nH]c2ccccc32)no1 | – | – | Activity (Mus musculus [4]): 94%
3 | Cc1nc([C@]2(c3cnn(C)c3)N[C@@H](c3nc(-c4ccc(F)cn4)c[nH]3)Cc3c2[nH]c2ccccc32)no1 | – | – | Activity (Mus musculus [4]): 46%; Activity (Mus musculus [9]): 40%; Activity (Mus musculus [10]): 57%; Activity (Mus musculus [11]): 87%; Activity (Mus musculus [12]): 93%; IC50 [13]: 2300 nM; IC50 [14]: > 10000 nM; IC50 [15]: 3200 nM; IC50 [16]: 10000 nM
4 | O=C(O)c1cccc(-c2c[nH]c([C@H]3Cc4c([nH]c5ccccc45)[C@@H](C4CCOCC4)N3)n2)c1 | – | > 1330 nM | –
5 | CS(=O)(=O)c1ccc(-c2c[nH]c([C@H]3Cc4c([nH]c5ccccc45)[C@@H](C4CCOCC4)N3)n2)cc1 | > 1000 nM | > 1330 nM | –
6 | COc1cccc(-c2c[nH]c([C@H]3Cc4c([nH]c5ccccc45)[C@](c4cnn(C)c4)(c4noc(C)n4)N3)n2)n1 | 4.8 nM | 2.1 nM | –
7 | Cc1ccc(-c2c[nH]c([C@H]3Cc4c([nH]c5ccccc45)[C@@H](C4CCOCC4)N3)n2)cc1 | 113 nM | 33 nM | –
8 | Cc1nc([C@@]2(c3cnn(C)c3)N[C@@H](c3nc(-c4ccccn4)c[nH]3)Cc3c2[nH]c2ccccc32)no1 | 77 nM | 24 nM | –
9 | Fc1cccc(-c2c[nH]c([C@H]3Cc4c([nH]c5ccccc45)[C@@H](C4CCOCC4)N3)n2)c1 | 88 nM | 8.2 nM | –
10 | c1cncc(-c2c[nH]c([C@H]3Cc4c([nH]c5ccccc45)[C@@H](C4CCOCC4)N3)n2)c1 | – | 193 nM | –
11 | c1ccc2c3c([nH]c2c1)[C@@H](C1CCOCC1)N[C@@H](c1nc(-c2ccncc2)c[nH]1)C3 | 432 nM | 163 nM | –
12 | Clc1ccc(-c2c[nH]c([C@H]3Cc4c([nH]c5ccccc45)[C@@H](C4CCOCC4)N3)n2)nc1 | 199 nM | 74 nM | –
13 | c1ccc2c3c([nH]c2c1)[C@@H](C1CCOCC1)N[C@@H](c1nc(-c2cnccn2)c[nH]1)C3 | 4500 nM | 782 nM | –
14 | COc1cccc(-c2c[nH]c([C@H]3Cc4c([nH]c5ccccc45)[C@@H](C4CCOCC4)N3)n2)c1 | 17 nM | 4.6 nM | –
15 | Cc1nc([C@]2(c3cnn(C)c3)N[C@@H](c3nc(-c4ccccc4)c[nH]3)Cc3c2[nH]c2ccccc32)no1 | 0.46 nM | 1.4 nM | –
16 | Cn1c2c(c3ccccc31)C[C@H](c1nc(-c3ccc(F)cc3)c[nH]1)N[C@@H]2C1CCOCC1 | 150 nM | 26 nM | –
17 | c1ccc2c3c([nH]c2c1)[C@@H](C1CCOCC1)N[C@@H](c1nc(-c2nccs2)c[nH]1)C3 | > 1000 nM | > 1330 nM | –
18 | c1ccc(-c2ccc(-c3c[nH]c([C@H]4Cc5c([nH]c6ccccc56)[C@@H](C5CCOCC5)N4)n3)cc2)cc1 | > 1000 nM | 391 nM | –
19 | Clc1ccc(-c2c[nH]c([C@H]3Cc4c([nH]c5ccccc45)[C@@H](C4CCOCC4)N3)n2)s1 | 206 nM | 17 nM | –
20 | Fc1ccc(-c2c[nH]c([C@H]3Cc4c([nH]c5ccccc45)[C@@H](C4CCOCC4)N3)n2)cc1F | 6.4 nM | 1.8 nM | –
21 | c1ccc2c(-c3c[nH]c([C@H]4Cc5c([nH]c6ccccc56)[C@@H](C5CCOCC5)N4)n3)c[nH]c2c1 | – | 133 nM | –
22 | Fc1ccc(-c2c[nH]c([C@H]3Cc4c([nH]c5ccccc45)[C@@H](C4CCOCC4)N3)n2)nc1 | 67 nM | 39 nM | –
23 | Cc1[nH]c([C@H]2Cc3c([nH]c4ccccc34)[C@@H](C3CCOCC3)N2)nc1-c1ccccc1 | > 1000 nM | 573 nM | –
24 | c1ccc2c3c([nH]c2c1)C(C1CCOCC1)NC(c1nc(C24CC5CC(CC(C5)C2)C4)c[nH]1)C3 (stereo not drawn) | > 1000 nM | 25 nM | IC50 [18]: 506 nM
25 | Cn1cc(-c2ccc(F)cc2)nc1[C@H]1Cc2c([nH]c3ccccc23)[C@@H](C2CCOCC2)N1 | > 1000 nM | 225 nM | –
26 | CC1(c2nc(-c3ccccc3)c[nH]2)Cc2c([nH]c3ccccc23)C(C2CCOCC2)N1 (stereo in doubt; 6b) | – | 603 nM | IC50 [18]: 2950 nM

Continued, in another order:

Row | EC50 [3] | IC50 [17] | SMILES | further results
27 | 5.7 nM | – | Fc1ccc(-c2c[nH]c([C@H]3Cc4c([nH]c5ccccc45)[C@@H](C4CCOCC4)N3)n2)cc1 | AUC/dose (Mus musculus [1]): 5.58 µM·h/mg/kg; clearance [5]: 5.9 mL/min/kg; half-life [6]: 3.6 h; Vd [7]: 1.8 L/kg; bioavailability [8]: 82%; Activity (Mus musculus [2]): 79%
28 | 30 nM | 18 nM | Fc1ccccc1-c1c[nH]c([C@H]2Cc3c([nH]c4ccccc34)[C@@H](C3CCOCC3)N2)n1 | –
29 | 48 nM | 15 nM | c1ccc2c3c([nH]c2c1)[C@@H](C1CCOCC1)N[C@@H](c1nc(-c2ccsc2)c[nH]1)C3 | –
30 | – | 1330 nM | Cn1cc(-c2ccc(F)cc2)nc1[C@H]1Cc2c([nH]c3ccccc23)[C@H](C2CCOCC2)N1 | –
31 | – | 141 nM | N#Cc1ccc(-c2c[nH]c([C@H]3Cc4c([nH]c5ccccc45)[C@@H](C4CCOCC4)N3)n2)cc1 | –
32 | 50 nM | 8.1 nM | Clc1ccc(-c2c[nH]c([C@H]3Cc4c([nH]c5ccccc45)[C@@H](C4CCOCC4)N3)n2)cc1 | –
33 | > 1000 nM | > 1330 nM | c1cnc(-c2c[nH]c([C@H]3Cc4c([nH]c5ccccc45)[C@@H](C4CCOCC4)N3)n2)nc1 | –
34 | > 1000 nM | 786 nM | c1ccc2c3c([nH]c2c1)[C@@H](C1CCOCC1)N[C@@H](c1nc(-c2cscn2)c[nH]1)C3 | –
35 | 405 nM | 487 nM | c1ccc(-c2nc([C@H]3Cc4c([nH]c5ccccc45)[C@@H](C4CCOCC4)N3)c[nH]2)cc1 | –
36 | 37 nM | 23 nM | Fc1ccc(-c2c[nH]c([C@H]3Cc4c([nH]c5ccccc45)[C@@H](C4CCOCC4)N3)n2)c(F)c1 | IC50 [18]: 634 nM
37 | 138 nM | 34 nM | Cc1csc(-c2c[nH]c([C@H]3Cc4c([nH]c5ccccc45)[C@@H](C4CCOCC4)N3)n2)c1 | –
38 | 17 nM | 2.9 nM | COc1cccc(-c2c[nH]c([C@H]3Cc4c([nH]c5ccccc45)[C@@](c4cnn(C)c4)(c4noc(C)n4)N3)n2)n1 | –
39 | 435 nM | 37 nM | N#Cc1cccc(-c2c[nH]c([C@H]3Cc4c([nH]c5ccccc45)[C@@H](C4CCOCC4)N3)n2)c1 | –
40 | 181 nM | 127 nM | COc1ccc(-c2c[nH]c([C@H]3Cc4c([nH]c5ccccc45)[C@@H](C4CCOCC4)N3)n2)cc1 | –
41 | 11 nM | 10 nM | c1ccc2c3c([nH]c2c1)[C@@H](C1CCOCC1)N[C@@H](c1nc(-c2csc4ccccc24)c[nH]1)C3 | –
42 | > 1000 nM | 639 nM | FC(F)(F)Oc1ccc(-c2c[nH]c([C@H]3Cc4c([nH]c5ccccc45)[C@@H](C4CCOCC4)N3)n2)cc1 | –
43 | 3.1 nM | 8 nM | COc1cccc(-c2c[nH]c([C@H]3Cc4c([nH]c5ccccc45)[C@@H](C4CCOCC4)N3)n2)n1 | IC50 [18]: 1020 nM
44 | 26 nM | 34 nM | Oc1ccc(-c2c[nH]c([C@H]3Cc4c([nH]c5ccccc45)[C@@H](C4CCOCC4)N3)n2)cc1 | –
45 | 196 nM | 109 nM | c1ccc(-c2c[nH]c([C@H]3Cc4c([nH]c5ccccc45)[C@@H](C4CCOCC4)N3)n2)nc1 | –
46 | > 1000 nM | 43 nM | FC(F)(F)Oc1cccc(-c2c[nH]c([C@H]3Cc4c([nH]c5ccccc45)[C@@H](C4CCOCC4)N3)n2)c1 | IC50 [18]: 58 nM
47 | 691 nM | 230 nM | c1ccc2c3c([nH]c2c1)C(C1CCOCC1)NC(c1nc(C2CCCCC2)c[nH]1)C3 (stereo not drawn) | –
48 | 201 nM | 282 nM | Fc1ccc(-c2n[nH]c([C@H]3Cc4c([nH]c5ccccc45)[C@@H](C4CCOCC4)N3)n2)cc1 | –
49 | 3.3 nM | 2.6 nM | Cc1nc([C@@]2(c3cnn(C)c3)N[C@@H](c3nc(-c4ccccc4)c[nH]3)Cc3c2[nH]c2ccccc32)no1 | –
50 | 5.5 nM | 9.4 nM | Cc1nc([C@]2(c3cnn(C)c3)N[C@@H](c3nc(-c4ccccn4)c[nH]3)Cc3c2[nH]c2ccccc32)no1 | –
51 | 1520 nM | 26 nM | FC(F)(F)c1ccc(-c2c[nH]c([C@H]3Cc4c([nH]c5ccccc45)[C@@H](C4CCOCC4)N3)n2)cc1 | –
52 | 1010 nM | 150 nM | CC(C)(C)c1c[nH]c(C2Cc3c([nH]c4ccccc34)C(C3CCOCC3)N2)n1 (stereo not drawn) | IC50 [18]: 2940 nM
53 | 938 nM | 280 nM | Fc1ccc(-c2cc([C@H]3Cc4c([nH]c5ccccc45)[C@@H](C4CCOCC4)N3)[nH]n2)cc1 | –
54 | – | > 1330 nM | CC1(c2nc(-c3ccccc3)c[nH]2)Cc2c([nH]c3ccccc23)C(C2CCOCC2)N1 (stereo in doubt; 6c) | IC50 [18]: 1630 nM
55 | > 1000 nM | 102 nM | CC1(c2nc(-c3ccccc3)c[nH]2)Cc2c([nH]c3ccccc23)C(C2CCOCC2)N1 (stereo in doubt; 6d) | IC50 [18]: 530 nM
